# Source: paper PMC8279156, “Design, synthesis, HER2 inhibition and anticancer evaluation of new substituted 1,5-dihydro-4,1-benzoxazepines” (Journal of Enzyme Inhibition and Medicinal Chemistry, 2021)
# Like-named read-outs stand apart in the source and are kept apart here.
# Columns and labels:
# [1] = system: A-375 human melanoma cancer cell line; assay: Proliferation assay (sulphorhodamine-B) in A-375; format: cell-based; conditions: 72 h of treatment, mean ± SD, read-out: IC50 A375
# Experimental: MCF-7, HCT-116, A-375 and SKBR cells were grown at 37 °C in an atmosphere containing 5% CO2, with Dulbecco’s modified Eagle Medium (DMEM) (Gibco, Grand Island, NY) supplemented with 10% heat-inactivated foetal bovine serum (FBS) (Gibco), 2% L-glutamine, 2.7% sodium bicarbonate, 1% Hepes buffer, 40 mg/L gentamicin and 500 mg/L ampicillin.
# Compounds were dissolved in DMSO and stored at −20 °C. For each experiment, the stock solutions were further diluted in medium to obtain the desired concentrations. The final solvent concentration in cell culture was ≤ 0.1% v/v of DMSO, a concentration without any effect on cell replication. Parallel cultures of MCF-7, HCT-116, A375 and SKBR-3 cells in medium with DMSO were used as controls.
# The effect of the compounds on cell viability was assessed using the sulphorhodamine-B colorimetric assay. Cells suspension (1 × 10^3 cells/well) were seeded onto 24-well plates and incubated for 24 h. The cells were then treated with different concentrations of drugs in their respective culture medium and maintained with the treatment for 3 days. Three days later, wells were aspirated and fresh medium and drug were added. Then cell cultures were maintained for 3 additional days. Thereafter, a Titertek Multiscan (Flow, Irvine, CA) at 492 nm was used. The linearity of the SRB assay was evaluated with a cell number for each cell stock before each cell growth experiment. The IC50 values were calculated from semi-logarithmic dose–response curves by linear interpolation. All the experiments were plated in triplicate wells and were carried out twice.
# We then investigated the effects of the target compounds on cell proliferation on the human breast cancer cell lines MCF-7 and SKBR-3, the human colon carcinoma cell line HCT-116 and the human malignant melanoma cell line A-375. The antiproliferative activity of 7–9 was evaluated using sulphorhodamine-B colorimetric assay after 72 h of treatment (Table 3).
# All experiments were conducted in duplicate and gave similar results. The data are mean ± SD of three independent determinations. MCF-7: human breast cancer cell line; SKBR3: human breast cancer cell line; HCT-116: human colon cancer cell line and A-375: human melanoma cancer cell line.
# [2] = system: HCT-116 human colon cancer cell line; set-up: method as in PMID 21126804; conditions: mean ± SD; cited from earlier work
# [3] = target: isolated HER2 (Homo sapiens, UniProt P04626); assay: HER2 inhibition assay, radiometric protein kinase assay (33PanQinase Activity Assay); format: biochemical; conditions: isolated HER2, radiometric assay, 10 concentrations in singlicate
# Experimental: The IC50 profile of the target compounds was determined using isolated HER2. IC50 values were measured by testing 10 concentrations (1 × 10 ^−4 M to 3 × 10 ^−9 M) of each compound in singlicate. A radiometric protein kinase assay (33PanQinase® Activity Assay) was used for measuring the kinase activity of HER2. The assay was performed in 96-well FlashPlatesTM from PerkinElmer (Boston, MA) in a 50 µl reaction volume. […] The reaction cocktails were incubated at 30 °C for 60 min. The reaction was halted with 50 µl of 2% (v/v) H3PO4, plates were aspirated and washed two times with 200 µl 0.9% (w/v) NaCl. Incorporation of ^33Pi was determined with a microplate scintillation counter (Microbeta, Wallac, Waltham, MA).
# Human epidermal growth factor receptor 2 (HER2) is overexpressed in about 20% of all breast cancers. […] This prompted us to evaluated compounds 7–9 for their in vitro HER2 inhibitory effect. The IC50 profile of the target compounds was determined against isolated HER2 using a radiometric assay (Table 1).
# [4] = system: MCF-7 human breast cancer cell line; conditions: cited from earlier work
# [5] = system: SKBR3 human breast cancer cell line; set-up: method as in PMID 24946763; conditions: mean ± SD; cited from earlier work
# Sequence of isolated HER2 (P04626 23-1255): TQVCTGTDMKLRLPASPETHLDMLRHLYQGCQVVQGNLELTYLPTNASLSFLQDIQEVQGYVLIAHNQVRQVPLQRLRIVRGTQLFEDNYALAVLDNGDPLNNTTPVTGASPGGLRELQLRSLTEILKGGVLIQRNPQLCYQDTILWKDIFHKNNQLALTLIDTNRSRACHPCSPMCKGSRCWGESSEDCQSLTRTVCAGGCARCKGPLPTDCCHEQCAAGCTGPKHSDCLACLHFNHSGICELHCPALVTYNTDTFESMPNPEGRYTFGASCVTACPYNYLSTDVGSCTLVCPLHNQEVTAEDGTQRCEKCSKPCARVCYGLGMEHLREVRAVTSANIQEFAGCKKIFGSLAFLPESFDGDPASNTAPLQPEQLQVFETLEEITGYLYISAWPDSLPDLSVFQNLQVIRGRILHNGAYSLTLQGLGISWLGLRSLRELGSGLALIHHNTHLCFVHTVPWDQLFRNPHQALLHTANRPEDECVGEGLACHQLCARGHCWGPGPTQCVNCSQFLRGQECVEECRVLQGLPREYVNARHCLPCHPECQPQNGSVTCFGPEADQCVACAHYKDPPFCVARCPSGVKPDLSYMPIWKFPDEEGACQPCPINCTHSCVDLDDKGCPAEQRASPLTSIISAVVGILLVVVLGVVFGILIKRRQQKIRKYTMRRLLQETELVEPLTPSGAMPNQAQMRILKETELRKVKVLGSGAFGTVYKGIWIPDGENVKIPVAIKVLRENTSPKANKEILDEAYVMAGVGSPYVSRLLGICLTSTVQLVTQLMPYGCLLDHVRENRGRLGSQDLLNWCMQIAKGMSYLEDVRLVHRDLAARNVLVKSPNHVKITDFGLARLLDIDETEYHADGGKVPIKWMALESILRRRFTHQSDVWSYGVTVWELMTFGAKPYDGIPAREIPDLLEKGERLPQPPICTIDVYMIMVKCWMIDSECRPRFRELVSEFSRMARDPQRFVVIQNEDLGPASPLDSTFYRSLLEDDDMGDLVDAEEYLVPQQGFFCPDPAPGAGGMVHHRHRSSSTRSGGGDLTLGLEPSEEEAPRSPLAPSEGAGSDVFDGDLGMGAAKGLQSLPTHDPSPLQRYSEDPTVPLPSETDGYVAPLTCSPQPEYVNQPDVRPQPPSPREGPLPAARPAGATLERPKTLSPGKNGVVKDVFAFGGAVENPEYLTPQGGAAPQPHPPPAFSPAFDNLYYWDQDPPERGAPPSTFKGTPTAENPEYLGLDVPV
smiles,measurement,setting,value
"O=[N+]([O-])c1ccc(S(=O)(=O)N2CC(n3cnc4c(Cl)nc(Cl)nc43)OCc3ccccc32)cc1 (racemic) [Compound 3, (RS)-2,6-dichloro-9-[1-(p-nitrobenzenesulfonyl)-1,2,3,5-tetrahydro-4,1-benzoxazepine-3-yl]-9H-purine]",IC50,[1],1050 ± 10 nM
same,IC50,[2],570 ± 20 nM
same,IC50,[3],27900 nM
same,IC50,"[4]; mean ± SD, read-out: IC50 MCF-7",350 ± 10 nM
same,IC50,"[4]; previously described compounds, introduction, no reference number printed at the values, read-out: IC50 against the MCF-7 cell line",355 nM
same,IC50,[5],330 nM
